Data published in patent publication US20260191835A1, “COMBINATIONS COMPRISING A MENIN-MLL INHIBITOR AND AT LEAST ONE OTHER THERAPEUTIC AGENT” (JANSSEN PHARMACEUTICA NV, priority 2022, published 2026).

Tested on: MOLM-13 tumors
Experiment: Efficacy (survival) in disseminated MOLM-13 (KMT2A-rearranged) model in NSG mice
Type: in vivo
Conditions: NSG mice bearing established MOLM-13 tumors, vs vehicle; Azacitidine 2 mg/kg ip QD × 7; Compound 51 2 mg/kg po QD × 28; n = 10
Procedure: 4) Efficacy of Menin-MLL Inhibitor in Combination with Azacitidine in MOLM-13 (KMT2A-Rearranged) Model in NSG Mice
Compound 51 was formulated in purified pyrogen-free deionized water, pH 4.0 and prepared to reach a total volume of 8 mL/kg. Doses were adjusted by individual body weight each day. Working stocks of Compound 51 were prepared once per week for each study and stored at 25° C.
Female NSG (NOD.Cg-Prkdc^scid Il2rg^tm1Wjl/SzJ) mice were used when they were approximately 6 to 8 weeks of age and weighed approximately 25 g. All animals could acclimate and recover from any shipping-related stress for a minimum of 7 days prior to experimental use. […]
Animals were monitored daily for clinical signs related to either compound toxicity or tumor burden (i.e., hind limb paralysis, lethargy, etc.).
For survival assessment, results were plotted as the percentage survival against days post tumor implant. […] Median survival was determined utilizing Kaplan-Meier survival analysis. The percent increased life span (ILS) was calculated as: ((median survival day of treated group−median survival day of control group)/median survival day of control group)×100. […]
Survival and body weight data were graphically represented utilizing Prism (Version 9). Statistical significance for body weights was evaluated as described above. […]

CC(=O)N1CCC(CN2CC[C@@H](Cc3cn(-c4ccc(F)cc4C(=O)N(C)C(C)C)c4cncc(C)c34)C2)CC1 [Compound 51]
% ILS (increased life span): *5%
